# How the values were obtained:
# Pyricularia Oryzae = assay: microbe, parasite or virus in culture; format: cell-based; conditions: 168 h, read-out: control (radial growth compared to the untreated check)
# Phakopsora pachyrhizi = Phakopsora pachyrhizi Test on Soybean (preventive activity, greenhouse); format: in vivo; conditions: preventive spray on young Soybean plants, inoculated one day after treatment, rated 3, 7, 10 and 15 days after application, read-out: Efficacy (% control), disease severity compared to the untreated check
# Outline: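 Preventive greenhouse test: young soybean plants sprayed with compound in 2% DMSO/acetone plus emulsified water at stated rates, inoculated one day later with 2×10^5 P. pachyrhizi conidia, held at 22-24° C and 80-90% RH. Disease severity (0-100%) rated 3, 7, 10 and 15 days after application; % control relative to untreated plants.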
# Colletotrichum capsici = Colletotrichum capsici (Anthracnose): radial mycelial growth on potato dextrose agar; format: cell-based; conditions: Colletotrichum truncatum, 168 h, 25° C., 60% relative humidity, seven days, read-out: control (radial growth compared to the untreated check)
# Botrytis cinerea = Botrytis cinerea (Gray Mold): radial mycelial growth on potato dextrose agar; format: cell-based; conditions: 300 ppm, 22° C., 90% relative humidity, seven days
# Alternaria solani = Alternaria solani (Early Blight of Tomato/Potato): radial mycelial growth on potato dextrose agar; format: cell-based; conditions: 168 h, potato dextrose agar, 25° C., 60% relative humidity, seven days, read-out: control (radial growth compared to the untreated check)
# Experimental: Compounds were dissolved in 0.3% dimethyl sulfoxide and then added to potato dextrose agar medium just prior to dispensing it into petri dishes. 5 mL medium with the compound in the desired concentration was dispensed into 60 mm sterile petri-plates. After solidification each plate was seeded with a 5 mm size mycelial disc taken from the periphery of an actively growing virulent culture plate. Plates were incubated in growth chambers at 25° C. temperature and 60% relative humidity for seven days and then the radial growth was measured and compared to that of the untreated control. Compounds 2 85 89 92 94 108 113 114 131 138 142 143
Structure (SMILES),inhibition of growth at 300 ppm (Pyricularia Oryzae),pest or weed control at 500 ppm (Phakopsora pachyrhizi),inhibition of growth at 300 ppm (Colletotrichum capsici),control (radial growth compared to the untreated check) (Botrytis cinerea),inhibition of growth at 300 ppm (Alternaria solani)
"CN(C(=O)c1cn2ccc(-c3noc(C(F)(F)F)n3)cc2n1)c1ccc(Cl)cc1 [Compound 12, N-(4-chlorophenyl)-N-methyl-7-(5-(trifluoromethyl)-1,2,4-oxadiazol-3-yl)imidazo[1,2-a]pyridine-2-carboxamide]",≥ 70%,≥ 70%,–,–,–
"O=C(c1cn2ccc(-c3noc(C(F)(F)F)n3)cc2n1)N1CCC1 [Compound 33, azetidin-1-yl(7-(5-(trifluoromethyl)-1,2,4-oxadiazol-3-yl)imidazo[1,2-a]pyridin-2-yl)methanone]",≥ 70%,≥ 70%,–,–,–
"COc1cccc(SCc2cn3ccc(-c4noc(C(F)(F)F)n4)cc3n2)c1 [Compound 46, 3-(2-(((3-methoxyphenyl)thio)methyl)imidazo[1,2-a]pyridin-7-yl)-5-(trifluoromethyl)-1,2,4-oxadiazole]",–,≥ 70%,≥ 70%,–,–
"FC(F)(F)c1nc(-c2ccn3cc(CSc4ccccc4)nc3c2)no1 [Compound 50, 3-(2-((phenylthio)methyl)imidazo[1,2-a]pyridin-7-yl)-5-(trifluoromethyl)-1,2,4-oxadiazole]",–,–,≥ 70%,–,–
"COCCNC(=O)c1cn2cc(-c3noc(C(F)(F)F)n3)ccc2n1 [Compound 65, N-(2-methoxyethyl)-6-(5-(trifluoromethyl)-1,2,4-oxadiazol-3-yl)imidazo[1,2-a]pyridine-2-carboxamide]",–,≥ 70%,≥ 70%,–,–
"O=C(c1cn2cc(-c3noc(C(F)(F)F)n3)ccc2n1)N1CCC1 [Compound 69, azetidin-1-yl(6-(5-(trifluoromethyl)-1,2,4-oxadiazol-3-yl)imidazo[1,2-a]pyridin-2-yl)methanone]",–,≥ 70%,≥ 70%,–,–
"CCOCc1cn2cc(-c3noc(C(F)(F)F)n3)ccc2n1 [Compound 80, 3-(2-(ethoxymethyl)imidazo[1,2-a]pyridin-6-yl)-5-(trifluoromethyl)-1,2,4-oxadiazole]",≥ 70%,–,–,≥ 70%,–
"O=C(NCc1cn2cc(-c3noc(C(F)(F)F)n3)ccc2n1)c1ccccn1 [Compound 87, N-((6-(5-(trifluoromethyl)-1,2,4-oxadiazol-3-yl)imidazo[1,2-a]pyridin-2-yl)methyl)picolinamide]",≥ 70%,≥ 70%,–,–,–
"O=C(NCc1cn2cc(-c3noc(C(F)(F)F)n3)ccc2n1)c1cocn1 [Compound 92, N-((6-(5-(trifluoromethyl)-1,2,4-oxadiazol-3-yl)imidazo[1,2-a]pyridin-2-yl)methyl)oxazole-4-carboxamide]",≥ 70%,–,–,–,≥ 70%
"O=C(Cc1ccccc1)NCc1cn2cc(-c3noc(C(F)(F)F)n3)ccc2n1 [Compound 94, 2-phenyl-N-((6-(5-(trifluoromethyl)-1,2,4-oxadiazol-3-yl)imidazo[1,2-a]pyridin-2-yl)methyl)acetamide]",–,≥ 70%,–,–,≥ 70%
"FC(F)(F)c1nc(-c2ccc3nc(CSc4cccc(Cl)c4)cn3c2)no1 [Compound 103, 3-(2-(((3-chlorophenyl)thio)methyl)imidazo[1,2-a]pyridin-6-yl)-5-(trifluoromethyl)-1,2,4-oxadiazole]",≥ 70%,≥ 70%,–,–,–
"FC(F)(F)c1nc(-c2ccc3nc(CSc4cc(Cl)cc(Cl)c4)cn3c2)no1 [Compound 111, 3-(2-(((3,5-dichlorophenyl)thio)methyl)imidazo[1,2-a]pyridin-6-yl)-5-(trifluoromethyl)-1,2,4-oxadiazole]",–,≥ 70%,≥ 70%,–,–
"CC(C)CSCc1cn2cc(-c3noc(C(F)(F)F)n3)ccc2n1 [Compound 112, 3-(2-((isobutylthio)methyl)imidazo[1,2-a]pyridin-6-yl)-5-(trifluoromethyl)-1,2,4-oxadiazole]",–,≥ 70%,≥ 70%,–,–
"FC(F)(F)c1nc(-c2ccc3nc(CSC4CCCC4)cn3c2)no1 [Compound 113, 3-(2-((cyclopentylthio)methyl)imidazo[1,2-a]pyridin-6-yl)-5-(trifluoromethyl)-1,2,4-oxadiazole]",≥ 70%,–,–,–,≥ 70%
"FC(F)(F)c1nc(-c2ccc3nc(CSC4CCCCC4)cn3c2)no1 [Compound 114, 3-(2-((cyclohexylthio)methyl)imidazo[1,2-a]pyridin-6-yl)-5-(trifluoromethyl)-1,2,4-oxadiazole]",≥ 70%,–,–,–,≥ 70%
"O=S(=O)(Cc1cn2cc(-c3noc(C(F)(F)F)n3)ccc2n1)c1ccccc1 [Compound 116, 3-(2-((phenylsulfonyl)methyl)imidazo[1,2-a]pyridin-6-yl)-5-(trifluoromethyl)-1,2,4-oxadiazole]",–,≥ 70%,≥ 70%,–,–
"O=S(=O)(Cc1cn2cc(-c3noc(C(F)(F)F)n3)ccc2n1)c1ccc(Cl)c(Cl)c1 [Compound 117, 3-(2-(((3,4-dichlorophenyl)sulfonyl)methyl)imidazo[1,2-a]pyridin-6-yl)-5-(trifluoromethyl)-1,2,4-oxadiazole]",–,–,≥ 70%,–,–
"COCCS(=O)(=NC(=O)Cc1cn2cc(-c3noc(C(F)(F)F)n3)ccc2n1)c1ccc(Cl)cc1 (centres unmarked) [Compound 136, N-((4-chlorophenyl)(2-methoxyethyl)(oxo)-λ^6-sulfaneylidene)-2-(6-(5-(trifluoromethyl)-1,2,4-oxadiazol-3-yl)imidazo[1,2-a]pyridin-2-yl)acetamide]",≥ 70%,–,–,–,–
"COc1ccc(S(C)(=O)=NC(=O)Cc2cn3cc(-c4noc(C(F)(F)F)n4)ccc3n2)cc1 (centres unmarked) [Compound 138, N-((4-methoxyphenyl)(methyl)(oxo)-λ^6-sulfaneylidene)-2-(6-(5-(trifluoromethyl)-1,2,4-oxadiazol-3-yl)imidazo[1,2-a]pyridin-2-yl)acetamide]",≥ 70%,–,–,–,≥ 70%
"CS(=O)(=NC(=O)Cc1cn2cc(-c3noc(C(F)(F)F)n3)ccc2n1)c1cc(Cl)cc(Cl)c1 (centres unmarked) [Compound 140, N-((3,5-dichlorophenyl)(methyl)(oxo)-λ^6-sulfaneylidene)-2-(6-(5-(trifluoromethyl)-1,2,4-oxadiazol-3-yl)imidazo[1,2-a]pyridin-2-yl)acetamide]",≥ 70%,–,–,–,–
"CS(=O)(=NC(=O)Cc1cn2cc(-c3noc(C(F)(F)F)n3)ccc2n1)c1ccc(Br)cc1 (centres unmarked) [Compound 142, N-((4-bromophenyl)(methyl)(oxo)-λ^6-sulfaneylidene)-2-(6-(5-(trifluoromethyl)-1,2,4-oxadiazol-3-yl)imidazo[1,2-a]pyridin-2-yl)acetamide]",≥ 70%,–,–,–,≥ 70%
"COc1ccnc(S(C)(=O)=NC(=O)Cc2cn3cc(-c4noc(C(F)(F)F)n4)ccc3n2)c1 (centres unmarked) [Compound 146, N-((4-methoxypyridin-2-yl)(methyl)(oxo)-λ^6-sulfaneylidene)-2-(6-(5-(trifluoromethyl)-1,2,4-oxadiazol-3-yl)imidazo[1,2-a]pyridin-2-yl)acetamide]",≥ 70%,–,–,–,≥ 70%
"CS(=O)(Cc1cn2ccc(-c3noc(C(F)(F)F)n3)cc2n1)=NC(=O)c1ccccc1C(F)(F)F (centres unmarked) [Compound 161, N-(methyl(oxo)((7-(5-(trifluoromethyl)-1,2,4-oxadiazol-3-yl)imidazo[1,2-a]pyridin-2-yl)methyl)-λ^6-sulfanylidene)-2-(trifluoromethyl)benzamide]",≥ 70%,–,–,–,–

# Reference: patent publication US20220151236A1, “NOVEL OXADIAZOLE COMPOUNDS FOR CONTROLLING OR PREVENTING PHYTOPATHOGENIC FUNGI” (PI INDUSTRIES LTD., priority 2019, published 2022)
